Results as given in the NIST ThermoML archive (doi:10.1007/s10765-006-0056-z).

Test: molar heat capacity at constant volume; xn = mol fraction of the nth substance listed
Conditions: x1 = 0.095

CCCCCCCCCC [decane] + O=C=O
Conditions | molar heat capacity at constant volume [J/K/mol]
339.76 K, Fluid (supercritical or subcritical phases), Mass density=658.8 kg/m3, Isochoric Heat Capacity Apparatus | 341.25
339.76 K, Liquid, iso | 405.37
339.81 K, Fluid (supercritical or subcritical phases), Mass density=658.8 kg/m3, Isochoric Heat Capacity Apparatus | 339.06
340.21 K, Fluid (supercritical or subcritical phases), Mass density=658.8 kg/m3, Isochoric Heat Capacity Apparatus | 339.7
340.44 K, Fluid (supercritical or subcritical phases), Mass density=658.8 kg/m3, Isochoric Heat Capacity Apparatus | 339.06
341.36 K, Fluid (supercritical or subcritical phases), Mass density=658.8 kg/m3, Isochoric Heat Capacity Apparatus | 337.04
342.32 K, Fluid (supercritical or subcritical phases), Mass density=658.8 kg/m3, Isochoric Heat Capacity Apparatus | 337.68
348.73 K, Fluid (supercritical or subcritical phases), Mass density=658.8 kg/m3, Isochoric Heat Capacity Apparatus | 325.41
352.09 K, Fluid (supercritical or subcritical phases), Mass density=622.7 kg/m3, Isochoric Heat Capacity Apparatus | 341.73
352.09 K, Liquid, iso | 393.1
352.5 K, Fluid (supercritical or subcritical phases), Mass density=622.7 kg/m3, Isochoric Heat Capacity Apparatus | 340.82
352.9 K, Fluid (supercritical or subcritical phases), Mass density=622.7 kg/m3, Isochoric Heat Capacity Apparatus | 339.06
354.63 K, Fluid (supercritical or subcritical phases), Mass density=622.7 kg/m3, Isochoric Heat Capacity Apparatus | 337.04
362.18 K, Fluid (supercritical or subcritical phases), Mass density=658.8 kg/m3, Isochoric Heat Capacity Apparatus | 313.14
364 K, Fluid (supercritical or subcritical phases), Mass density=622.7 kg/m3, Isochoric Heat Capacity Apparatus | 323.65
368.53 K, Fluid (supercritical or subcritical phases), Mass density=574.1 kg/m3, Isochoric Heat Capacity Apparatus | 365.42
368.53 K, Liquid, iso | 393.1
368.83 K, Fluid (supercritical or subcritical phases), Mass density=574.1 kg/m3, Isochoric Heat Capacity Apparatus | 364.08
369.77 K, Fluid (supercritical or subcritical phases), Mass density=574.1 kg/m3, Isochoric Heat Capacity Apparatus | 359.39
371.23 K, Fluid (supercritical or subcritical phases), Mass density=658.8 kg/m3, Isochoric Heat Capacity Apparatus | 303.75
380.81 K, Fluid (supercritical or subcritical phases), Mass density=622.7 kg/m3, Isochoric Heat Capacity Apparatus | 305.78
383.81 K, Fluid (supercritical or subcritical phases), Mass density=534.8 kg/m3, Isochoric Heat Capacity Apparatus | 350.91
384.11 K, Fluid (supercritical or subcritical phases), Mass density=534.8 kg/m3, Isochoric Heat Capacity Apparatus | 347.55
385.02 K, Fluid (supercritical or subcritical phases), Mass density=574.1 kg/m3, Isochoric Heat Capacity Apparatus | 318.95
385.79 K, Fluid (supercritical or subcritical phases), Mass density=534.8 kg/m3, Isochoric Heat Capacity Apparatus | 348.67
387.65 K, Fluid (supercritical or subcritical phases), Mass density=534.8 kg/m3, Isochoric Heat Capacity Apparatus | 339.49
393.22 K, Fluid (supercritical or subcritical phases), Mass density=509.4 kg/m3, Isochoric Heat Capacity Apparatus | 349.31
393.66 K, Fluid (supercritical or subcritical phases), Mass density=622.7 kg/m3, Isochoric Heat Capacity Apparatus | 307.11
394.42 K, Fluid (supercritical or subcritical phases), Mass density=509.4 kg/m3, Isochoric Heat Capacity Apparatus | 339.06
395.94 K, Fluid (supercritical or subcritical phases), Mass density=509.4 kg/m3, Isochoric Heat Capacity Apparatus | 340.82
397.67 K, Fluid (supercritical or subcritical phases), Mass density=498 kg/m3, Isochoric Heat Capacity Apparatus | 351.12
397.78 K, Fluid (supercritical or subcritical phases), Mass density=574.1 kg/m3, Isochoric Heat Capacity Apparatus | 312.23
398.32 K, Fluid (supercritical or subcritical phases), Mass density=498 kg/m3, Isochoric Heat Capacity Apparatus | 353.09
399.4 K, Fluid (supercritical or subcritical phases), Mass density=498 kg/m3, Isochoric Heat Capacity Apparatus | 343.97
401.33 K, Fluid (supercritical or subcritical phases), Mass density=534.8 kg/m3, Isochoric Heat Capacity Apparatus | 323.65
403.37 K, Fluid (supercritical or subcritical phases), Mass density=574.1 kg/m3, Isochoric Heat Capacity Apparatus | 314.26
404.76 K, Fluid (supercritical or subcritical phases), Mass density=509.4 kg/m3, Isochoric Heat Capacity Apparatus | 325.19
404.98 K, Fluid (supercritical or subcritical phases), Mass density=477.6 kg/m3, Isochoric Heat Capacity Apparatus | 347.33
405.41 K, Fluid (supercritical or subcritical phases), Mass density=477.6 kg/m3, Isochoric Heat Capacity Apparatus | 344.18
406.9 K, Fluid (supercritical or subcritical phases), Mass density=534.8 kg/m3, Isochoric Heat Capacity Apparatus | 319.59
407.33 K, Fluid (supercritical or subcritical phases), Mass density=477.6 kg/m3, Isochoric Heat Capacity Apparatus | 339.28
410.31 K, Fluid (supercritical or subcritical phases), Mass density=509.4 kg/m3, Isochoric Heat Capacity Apparatus | 327.43
410.94 K, Fluid (supercritical or subcritical phases), Mass density=498 kg/m3, Isochoric Heat Capacity Apparatus | 327.01
411.47 K, Fluid (supercritical or subcritical phases), Mass density=574.1 kg/m3, Isochoric Heat Capacity Apparatus | 311.32
416.01 K, Fluid (supercritical or subcritical phases), Mass density=477.6 kg/m3, Isochoric Heat Capacity Apparatus | 330.31
416.64 K, Fluid (supercritical or subcritical phases), Mass density=509.4 kg/m3, Isochoric Heat Capacity Apparatus | 321.62
422.51 K, Fluid (supercritical or subcritical phases), Mass density=498 kg/m3, Isochoric Heat Capacity Apparatus | 321.62
423.55 K, Fluid (supercritical or subcritical phases), Mass density=509.4 kg/m3, Isochoric Heat Capacity Apparatus | 319.59
428.94 K, Fluid (supercritical or subcritical phases), Mass density=477.6 kg/m3, Isochoric Heat Capacity Apparatus | 321.41
432.24 K, Fluid (supercritical or subcritical phases), Mass density=509.4 kg/m3, Isochoric Heat Capacity Apparatus | 320.07
434.61 K, Fluid (supercritical or subcritical phases), Mass density=398.3 kg/m3, Isochoric Heat Capacity Apparatus | 344.61
434.91 K, Fluid (supercritical or subcritical phases), Mass density=398.3 kg/m3, Isochoric Heat Capacity Apparatus | 342.64
436.96 K, Fluid (supercritical or subcritical phases), Mass density=398.3 kg/m3, Isochoric Heat Capacity Apparatus | 343.06
437.68 K, Fluid (supercritical or subcritical phases), Mass density=498 kg/m3, Isochoric Heat Capacity Apparatus | 321.19
438.19 K, Fluid (supercritical or subcritical phases), Mass density=509.4 kg/m3, Isochoric Heat Capacity Apparatus | 318.05
440.43 K, Fluid (supercritical or subcritical phases), Mass density=534.8 kg/m3, Isochoric Heat Capacity Apparatus | 316.28
442.03 K, Fluid (supercritical or subcritical phases), Mass density=534.8 kg/m3, Isochoric Heat Capacity Apparatus | 316.5
442.05 K, Fluid (supercritical or subcritical phases), Mass density=498 kg/m3, Isochoric Heat Capacity Apparatus | 321.19
442.66 K, Fluid (supercritical or subcritical phases), Mass density=477.6 kg/m3, Isochoric Heat Capacity Apparatus | 322.31
442.88 K, Fluid (supercritical or subcritical phases), Mass density=498 kg/m3, Isochoric Heat Capacity Apparatus | 321.19
